From patent publication US20230255966A1, “A COMBINATION OF A CBP/P300 BROMODOMAIN INHIBITOR AND AN EGFR INHIBITOR FOR USE IN TREATING EGFR-MUTANT NSCLC” (TOLREMO THERAPEUTICS AG, priority 2020, published 2023)
One block for each compound: values may come before it.

Columns and labels:
[1] = biological target: T1, CBP bromodomain (Homo sapiens, UniProt Q92793); assay: CBP bromodomain binding assay (TR-FRET); details: class symbols
T1 construct: purchased Cayman chemicals 600850
Experimental: Compounds solutions of 10 mM in DMSO were pre-diluted in DSMO to 25× stock solutions in DMSO. These were then diluted down to 4× in Assay buffer. A dilution series in Assay buffer was performed keeping the DMSO concentration stable. 5 μl compound in assay buffer was transferred into the assay plate (provided by assay kit) and the TR-FRET assay Cayman chemicals; 600850) was performed using the manufactor's instructions. […] The TR-FRET ratio was calculated by dividing 670 nm emission by 620 nm emission.

[2] = tested on: HCC827 cells; assay: Cell counting by nuclear fluorescent staining (Hoechst33342); format: cell-based
Experimental: Several plates were seeded, as for each time point of cell counting one plate was fixed and stained for analysis. […] Cell cultivation was continued until time of fixation and analysis for each plate. For extended time-points, medium and drugs were replenished twice weekly.
At the given time plates were washed 3 times with PBS and cells fixed with 80 μl 4% PFA for 10 min, RT. After 3 wash steps with PBS cells were stained with 10 μg/ml Hoechst33342 (Thermo Scientific H12492) in 100 μl PBS for 2 h, RT, dark. After 3× PBS washing-steps, Hoechst33342 signals were acquired on in an automated imaging mode using a Zeiss Apotome with motorized X/Y stage and a 5× objective. Image analysis and determination of Hoechst33342 spots (nuclei) was done using ImageJ. Number of nuclei was plotted as function of time using GraphPad Prism.

[3] = tested on: HCC827 cells; assay: Label-free determination of cell proliferation (CELIGO); format: cell-based; details: HCC827, combined with 100 nM osimertinib, 21 days (FIG. 9)
[4] = tested on: NCI-H1975 xenografts; assay: NCI-H1975 xenograft tumor growth; format: in vivo, NMRI-Nude mice
Experimental: Tumor volume was measured using a manual caliper two to three times a week. The tumor volume was calculated using the formula: lager tumor diameter x square of the smaller tumor diameter divided by 2. Based on a linear fit of the mean tumor volumes the slopes of the curves were compared by regression analysis (two-tailed).
(§1) The response was determined by comparing tumor volume change at time t to its baseline: % tumor volume change=ΔVolt=100%×((Vt−Vinitial)/Vinitial). The Best Response was the minimum value of ΔVolt for t≥10 d. For each time t, the average of ΔVolt from t=0 to t was also calculated. The BestAvgResponse is defined as the minimum value of this average for t≥10 d. This metric captures a combination of speed, strength and durability of response into a single value. […] Mice that were sacrificed because of an adverse event before they had completed 14 d on trial were removed from the data set.
as §1, with “ΔVolt for t≥6 d. For” for “ΔVolt for t≥10 d. For”

[5] = biological target: T2, TRIM33(PHD, Bromo.) (Homo sapiens, UniProt Q9UPN9); assay: BROMOscan BromoKdMAX; format: binding
T2 construct: TRIM33(PHD, Bromo.)
T2 sequence (Q9UPN9 whole entry): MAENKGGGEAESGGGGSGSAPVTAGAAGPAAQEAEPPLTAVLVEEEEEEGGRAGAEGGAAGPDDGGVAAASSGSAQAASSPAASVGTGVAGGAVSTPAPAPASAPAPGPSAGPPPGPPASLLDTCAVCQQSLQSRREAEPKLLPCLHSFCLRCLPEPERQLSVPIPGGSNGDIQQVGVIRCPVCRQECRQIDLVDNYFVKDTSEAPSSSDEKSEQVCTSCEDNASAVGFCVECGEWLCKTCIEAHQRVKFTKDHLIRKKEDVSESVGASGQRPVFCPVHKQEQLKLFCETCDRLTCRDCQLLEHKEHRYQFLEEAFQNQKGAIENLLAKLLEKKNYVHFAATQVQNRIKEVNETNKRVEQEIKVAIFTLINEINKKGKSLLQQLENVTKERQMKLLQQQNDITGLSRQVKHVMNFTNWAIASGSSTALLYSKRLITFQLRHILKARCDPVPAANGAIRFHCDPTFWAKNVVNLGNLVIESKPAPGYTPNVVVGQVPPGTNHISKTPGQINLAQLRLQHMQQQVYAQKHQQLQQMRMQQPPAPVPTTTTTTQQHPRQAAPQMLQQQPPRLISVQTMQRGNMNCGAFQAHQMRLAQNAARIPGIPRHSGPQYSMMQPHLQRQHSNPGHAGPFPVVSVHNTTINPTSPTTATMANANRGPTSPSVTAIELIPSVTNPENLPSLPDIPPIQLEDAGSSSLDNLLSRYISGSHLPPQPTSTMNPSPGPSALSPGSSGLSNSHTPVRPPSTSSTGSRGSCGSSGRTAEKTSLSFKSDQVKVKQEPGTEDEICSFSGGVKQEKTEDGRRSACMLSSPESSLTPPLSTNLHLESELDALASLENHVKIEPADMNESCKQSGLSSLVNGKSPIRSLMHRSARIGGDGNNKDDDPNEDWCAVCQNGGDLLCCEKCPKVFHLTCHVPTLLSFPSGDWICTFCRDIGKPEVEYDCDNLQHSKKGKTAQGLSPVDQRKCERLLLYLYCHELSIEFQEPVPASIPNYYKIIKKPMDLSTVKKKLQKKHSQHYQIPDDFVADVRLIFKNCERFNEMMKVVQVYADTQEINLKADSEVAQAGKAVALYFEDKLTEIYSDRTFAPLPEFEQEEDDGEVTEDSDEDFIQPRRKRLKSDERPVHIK
Experimental: (§2) A BromoKdMAX was performed at DiscoverX.
(§3) The assay principle is the following: BROMOscan™ is a novel industry leading platform for identifying small molecule bromodomain inhibitors. Based on proven KINOMEscan™ technology, BRO-MOscan™ employs a proprietary ligand binding site-directed competition assay to quantitatively measure interactions between test compounds and bromodomains. This robust and reliable assay panel is suitable for high throughput screening and delivers quantitative ligand binding data to facilitate the identification and optimization of potent and selective small molecule bromodomain inhibitors.
(§4) The assay was conducted as follows: For the Bromodomain assays, T7 phage strains displaying bromodomains were grown in parallel in 24-well blocks in an E. coli host derived from the BL21 strain. E. coli were grown to log-phase and infected with T7 phage from a frozen stock (multiplicity of infection=0.4) and incubated with shaking at 32° C. until lysis (90-150 minutes). The lysates were centrifuged (5,000×g) and filtered (0.2 μm) to remove cell debris. […] The liganded beads were blocked with excess biotin and washed with blocking buffer (SeaBlock (Pierce), 1% BSA, 0.05% Tween 20, 1 mM DTT) to remove unbound ligand and to reduce non-specific phage binding. […] Test compounds were prepared as 1000× stocks in 100% DMSO. Kds were determined using an 11-point 3-fold compound dilution series with one DMSO control point. […] The compounds were then diluted directly into the assays such that the final concentration of DMSO was 0.09%. All reactions performed in polypropylene 384-well plates. Each was a final volume of 0.02 ml. […] The bromodomain concentration in the eluates was measured by qPCR.

[6] = biological target: T3, SMARCA2 (Homo sapiens, UniProt P51531); assay: BROMOscan BromoKdMAX; format: binding
T3 construct: T7 phage strains displaying bromodomains were grown in parallel; purchased DiscoverX (BROMOscan / BromoKdMAX service); host or cells: T7 phage in E. coli host derived from BL21
T3 sequence (P51531 1378-1506 limits assumed): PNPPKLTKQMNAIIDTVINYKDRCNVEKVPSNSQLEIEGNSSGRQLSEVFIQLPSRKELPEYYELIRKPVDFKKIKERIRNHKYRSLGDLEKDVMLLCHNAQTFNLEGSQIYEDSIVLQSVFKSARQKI
Experimental: as §2, §3, §4

[7] = biological target: T4, ATAD2A (Homo sapiens, UniProt Q6PL18); assay: BROMOscan BromoKdMAX; format: binding
T4 construct: T7 phage strains displaying bromodomains were grown in parallel; purchased DiscoverX; host or cells: T7 phage in E. coli host derived from BL21
T4 sequence (Q6PL18 980-1092 limits assumed): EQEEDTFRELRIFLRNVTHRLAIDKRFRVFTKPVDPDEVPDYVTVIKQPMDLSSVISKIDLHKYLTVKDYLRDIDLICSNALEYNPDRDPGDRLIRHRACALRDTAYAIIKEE
Experimental: as §2, §3, §4

[8] = biological target: T5, BRD1 (Homo sapiens, UniProt O95696); assay: BROMOscan BromoKdMAX; format: binding
T5 construct: T7 phage strains displaying bromodomains were grown in parallel; purchased DiscoverX; host or cells: T7 phage in E. coli host derived from BL21
T5 sequence (O95696 562-666 limits assumed): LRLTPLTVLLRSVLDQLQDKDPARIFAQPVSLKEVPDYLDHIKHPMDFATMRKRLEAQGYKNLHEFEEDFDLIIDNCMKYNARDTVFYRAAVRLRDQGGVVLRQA
Experimental: as §2, §3, §4

[9] = biological target: T6, PBRM1(5) (Homo sapiens, UniProt Q86U86); assay: BROMOscan BromoKdMAX; format: binding
T6 construct: T7 phage strains displaying bromodomains were grown in parallel; purchased DiscoverX (BROMOscan / BromoKdMAX service); host or cells: T7 phage in E. coli host derived from BL21
T6 sequence (Q86U86 653-763 limits assumed): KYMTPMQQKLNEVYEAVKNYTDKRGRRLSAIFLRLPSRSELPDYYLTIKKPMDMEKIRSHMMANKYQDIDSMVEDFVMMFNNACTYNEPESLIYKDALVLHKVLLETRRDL
Experimental: as §2, §3, §4

[10] = biological target: T7, BAZ2A (Homo sapiens, UniProt Q9UIF9); assay: BROMOscan BromoKdMAX; format: binding
T7 construct: T7 phage strains displaying bromodomains were grown in parallel; purchased DiscoverX; host or cells: T7 phage in E. coli host derived from BL21
T7 sequence (Q9UIF9 1793-1897 limits assumed): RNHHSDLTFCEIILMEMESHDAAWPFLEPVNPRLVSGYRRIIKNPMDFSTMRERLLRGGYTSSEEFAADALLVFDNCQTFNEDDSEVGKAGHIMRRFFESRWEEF
Experimental: as §2, §3, §4

[11] = biological target: T8, PBRM1(2) (Homo sapiens, UniProt Q86U86); assay: BROMOscan BromoKdMAX; format: binding
T8 construct: T7 phage strains displaying bromodomains were grown in parallel; purchased DiscoverX (BROMOscan / BromoKdMAX service); host or cells: T7 phage in E. coli host derived from BL21
T8 sequence (Q86U86 177-287 limits assumed): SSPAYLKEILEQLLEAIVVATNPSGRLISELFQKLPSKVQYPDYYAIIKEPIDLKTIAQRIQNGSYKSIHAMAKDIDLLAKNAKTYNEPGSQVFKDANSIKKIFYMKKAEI
Experimental: as §2, §3, §4

[12] = biological target: T9, GCN5L2 (Homo sapiens, UniProt Q92830); assay: BROMOscan BromoKdMAX; format: binding
T9 construct: T7 phage strains displaying bromodomains were grown in parallel; purchased DiscoverX (BROMOscan / BromoKdMAX service); host or cells: T7 phage in E. coli host derived from BL21
T9 sequence (Q92830 728-832 limits assumed): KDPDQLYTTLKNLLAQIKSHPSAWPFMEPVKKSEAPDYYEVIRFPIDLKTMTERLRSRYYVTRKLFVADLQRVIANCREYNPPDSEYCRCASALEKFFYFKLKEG
Experimental: as §2, §3, §4

[13] = biological target: T10, ATAD2B (Homo sapiens, UniProt Q9ULI0); assay: BROMOscan BromoKdMAX; format: binding
T10 construct: T7 phage strains displaying bromodomains were grown in parallel; purchased DiscoverX; host or cells: T7 phage in E. coli host derived from BL21
T10 sequence (Q9ULI0 951-1066 limits assumed): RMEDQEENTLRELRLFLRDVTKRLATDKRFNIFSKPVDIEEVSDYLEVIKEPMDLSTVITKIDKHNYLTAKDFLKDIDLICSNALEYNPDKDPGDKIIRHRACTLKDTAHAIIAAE
Experimental: as §2, §3, §4

[14] = biological target: T11, FALZ (Homo sapiens, UniProt Q12830); assay: BROMOscan BromoKdMAX; format: binding
T11 construct: T7 phage strains displaying bromodomains were grown in parallel; purchased DiscoverX (BROMOscan / BromoKdMAX service); host or cells: T7 phage in E. coli host derived from BL21
Experimental: as §2, §3, §4

[15] = biological target: T12, SMARCA4 (Homo sapiens, UniProt P51532); assay: BROMOscan BromoKdMAX; format: binding
T12 construct: T7 phage strains displaying bromodomains were grown in parallel; purchased DiscoverX (BROMOscan / BromoKdMAX service); host or cells: T7 phage in E. coli host derived from BL21
T12 sequence (P51532 1453-1564 limits assumed): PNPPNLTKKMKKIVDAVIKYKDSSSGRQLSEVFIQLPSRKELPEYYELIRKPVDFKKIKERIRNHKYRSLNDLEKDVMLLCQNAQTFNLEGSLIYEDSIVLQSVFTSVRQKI
Experimental: as §2, §3, §4

[16] = biological target: T13, BAZ2B (Homo sapiens, UniProt Q9UIF8); assay: BROMOscan BromoKdMAX; format: binding
T13 construct: T7 phage strains displaying bromodomains were grown in parallel; purchased DiscoverX; host or cells: T7 phage in E. coli host derived from BL21
T13 sequence (Q9UIF8 2060-2164 limits assumed): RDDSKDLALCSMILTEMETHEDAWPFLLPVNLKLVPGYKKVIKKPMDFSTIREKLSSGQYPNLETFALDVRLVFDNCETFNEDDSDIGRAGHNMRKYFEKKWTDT
Experimental: as §2, §3, §4

[17] = biological target: T14, BRPF3 (Homo sapiens, UniProt Q9ULD4); assay: BROMOscan BromoKdMAX; format: binding
T14 construct: T7 phage strains displaying bromodomains were grown in parallel; purchased DiscoverX; host or cells: T7 phage in E. coli host derived from BL21
T14 sequence (Q9ULD4 589-693 limits assumed): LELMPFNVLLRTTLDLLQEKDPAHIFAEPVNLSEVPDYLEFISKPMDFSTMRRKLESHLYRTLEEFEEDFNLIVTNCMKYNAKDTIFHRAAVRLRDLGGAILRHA
Experimental: as §2, §3, §4

[18] = 2 mg/kg osimertinib in combination with 90 mg/kg Compound C

T1 sequence (Q92793 1085-1192 limits assumed): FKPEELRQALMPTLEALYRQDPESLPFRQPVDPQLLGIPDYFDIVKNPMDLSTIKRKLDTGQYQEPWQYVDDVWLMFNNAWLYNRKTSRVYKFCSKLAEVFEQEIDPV

- EC50 [1]: < 0.2 µM
Compound: CC(=O)N1C[C@H](c2nc(Nc3ccnc(C)c3)cc(-c3cccnc3)n2)CC[C@@H]1C [Compound 00071, 1-((2S,5R)-2-methyl-5-(4-((2-methylpyridin-4-yl)amino)-6-(pyridin-3-yl)pyrimidin-2-yl)piperidin-1-yl)ethan-1-one]
- Effect on cell proliferation as single agent ([2]; absence of EGFR inhibitor (FIG. 3 left)): absence of an anti-proliferative effect
- Anti-proliferative activity / re-growth in presence of Gefitinib ([2]; in presence of 300 nM Gefitinib (FIG. 3)): potentiate the effect of the EGFR inhibitor

Compound: CC(=O)N1C[C@H](c2nc(Nc3cccc(-c4cn(C)nn4)c3)cc(-c3cnccn3)n2)CC[C@@H]1C [Compound C, 1-((2S,5R)-2-methyl-5-(4-((3-(1-methyl-1H-1,2,3-triazol-4-yl)phenyl)amino)-6-(pyrazin-2-yl)pyrimidin-2-yl)piperidin-1-yl)ethan-1-one]
- Development of drug resistance / re-growth [3]: prevent the development of drug resistance
- Response to therapy [4, 18]: response to therapy is significantly increased
- Slope of linear regression fit of mean tumor volumes over time [4, 18]: −7.4
- Tumor growth (slopes of mean tumor volume curves) versus osimertinib group ([4]; 2 mg/kg osimertinib in combination with 90 mg/kg Compound C, daily, orally): significant difference
- Tumor growth (slopes of mean tumor volume curves) versus vehicle ([4]; 90 mg/kg Compound C single agent, daily, orally): No significant difference
- Kd [5]: > 10 µM
- Kd [6]: > 10 µM
- Kd [7]: > 10 µM
- Kd [8]: > 10 µM
- Kd [9]: > 10 µM
- Kd [10]: > 10 µM
- Kd [11]: > 10 µM
- Kd [12]: > 10 µM
- Kd [13]: > 10 µM
- Kd [14]: > 10 µM
- Kd [15]: > 10 µM
- Kd [16]: > 10 µM
- Kd [17]: > 10 µM
